# Laboratory results as given in patent US6284768A, “Src family SH2 domain inhibitors” (Boehringer Ingelheim Pharmaceuticals, Inc., priority 1999, dated 2001).
# Target: T1, p56lck GST-SH2 (lck SH2 domain) (Homo sapiens, UniProt P06239)
# T1 construct: GST (N)
# Test: Receptor-ligand equilibrium binding constants by surface plasmon resonance (biosensor), lck SH2 domain
# Settings: Table 1, compounds of formula (II)
# Protocol: The general methods for the determination of Receptor-Ligand Kinetic and Equilibrium Binding Constants using Surface Plasmon Resonance as applied to the lck SH2 Domain have been described in: M. M. Morelock, R. H. Ingraham, R. Betageri.
# General Biosensor Methods.
# The mobile phase buffer, 10 mM HEPES, pH 7.4, 150 mM NaCl, and 0.05% P-20, was maintained at a flow rate of 5 μL/min in all experiments. All buffers and protein solutions were filtered through a 0.2 um filter and degassed immediately before use.
# Strepavidin was diluted to 0.25 mg/ml in 20 mM NaOAc buffer, pH 4.5 and immobilized by free amine coupling to approximately 3000 RU for all 4 flow cells from a single sensor chip .
# Surface Kd Determinations.
# The surface was regenerated by 4μL of 20 mM HCl followed by 4 μL of 150 mM Tris base. The values used in the analysis were the equilibrium plateau values from which the sample refractive index has been subtracted. For the data analyzed for linear function the equilibrium plateau values without the sample refractive index subtracted were used. Free solution Kd determinations. In a 96 well microtiter plate 20 nM SH2 domain suspended in running buffer containing 0.2 mg/ml BSA and 1 mM DT'T was distributed in 100 μL per well. The highest concentration of compound tested was added to the last well and titrated with 2 fold dilutions for a final of 10 concentrations to be run. 25 μL of the mixture was injected over a strepavidin-biotin-ε-aminohexanoic acid-EGQpYEEIPIA surface and regenerated with 4 μL of 20 mM HCl. […], of 150 mM Tris base was injected after every 11 samples. Typically 8 assays were run in an overnight programmed run.
# T1 sequence (P06239 127-224 limits assumed): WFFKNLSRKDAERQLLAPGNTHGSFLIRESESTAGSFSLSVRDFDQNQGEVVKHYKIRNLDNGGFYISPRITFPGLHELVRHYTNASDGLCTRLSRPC
row,SMILES,Kd [µM]
1,"COc1ccc(Cn2ccc(C)c(NC(=O)[C@H](Cc3ccc(CS(=O)(=O)O)cc3)NC(=O)Cc3cccc4ccccc34)c2=O)cc1 [Compound 42, 3-[2'-(S)-(1'""-Naphthylacetyl)amino-3'-(4""-sulfonylmethyl)benzene]propanoylamino-1-(4-methoxybenzyl)-4-methyl-2-pyridone]",1.5
2,COc1ccc(Cn2ccc(C)c(NC(=O)[C@H](Cc3ccc(NC(=O)C(=O)O)cc3)NC(=O)Cc3ccc(C(C)C)cc3)c2=O)cc1 [Compound 43],1.9
3,COc1ccc(Cn2ccc(C)c(NC(=O)[C@H](Cc3ccc(C(C)(C)C(=O)O)cc3)NC(=O)[C@H](C)c3cccc4ccccc34)c2=O)cc1 [Compound 44],1.5
4,COc1ccc(Cn2ccc(C)c(NC(=O)[C@H](Cc3ccc(C(C)(C)C(=O)O)cc3)NC(=O)[C@@H](C)c3cccc4ccccc34)c2=O)cc1 [Compound 45],3.4
5,COc1ccc(Cn2ccc(C)c(NC(=O)[C@H](Cc3ccc(NC(=O)C(=O)O)cc3)NC(=O)Cc3ccc(NC(C)C)cc3)c2=O)cc1 [Compound 47],2.1
6,COc1ccc(Cn2ccc(C)c(NC(=O)[C@H](Cc3ccc(NC(=O)C(=O)O)cc3)NC(=O)Cc3ccc(NCC(C)(C)C)cc3)c2=O)cc1 [Compound 48],0.5
7,COc1ccc(Cn2ccc(C)c(NC(=O)[C@H](Cc3ccc(NC(=O)C(=O)O)cc3)NC(=O)Cc3cccc(N(C)C)c3)c2=O)cc1 [Compound 49],2.1
8,"COc1ccc(Cn2ccc(C)c(NC(=O)[C@H](Cc3ccc(C(CO)C(=O)O)cc3)NC(=O)OCc3ccccc3)c2=O)cc1 (stereo partly drawn) [Compound 50, 3-[2-(S)-Benzyloxycarbonylamino-3-[4'-(1""-(R,S)-carboxy-2""-hydroxy)ethyl]benzene]propanoylamino-1-(4-methoxybentyl)-4-methyl-2-pyridone]",39
9,Cc1ccn(Cc2ccc(OC(C)C)cc2)c(=O)c1NC(=O)[C@H](Cc1ccc(CC(=O)O)cc1)NC(=O)Cc1cccc2ccccc12 [Compound 51],> 69
10,COc1ccc(Cn2ccc(C)c(NC(=O)[C@H](Cc3ccc(NC(=O)C(=O)O)cc3)NC(=O)Cc3cccc4ccccc34)c2=O)cc1 [Compound 52],0.24
11,"Cc1ccn(Cc2ccc(OC(F)(F)F)cc2)c(=O)c1NC(=O)[C@H](Cc1ccc(CC(=O)O)cc1)NC(=O)Cc1cccc2ccccc12 [Compound 53, 3-[2'-(S)-(1'""-Naphthyl)acetlyamino-3'-(4""-carboxymethyl)benzene]propanoylamino-1-(4-trifluoromethoxybenzyl)-4-methyl-2-pyridone]",12.7
12,Cc1ccn(Cc2ccc(C(C)C)cc2)c(=O)c1NC(=O)[C@H](Cc1ccc(CC(=O)O)cc1)NC(=O)Cc1cccc2ccccc12 [Compound 54],> 500
13,Cc1ccn(Cc2ccc(Cl)cc2)c(=O)c1NC(=O)[C@H](Cc1ccc(CC(=O)O)cc1)NC(=O)Cc1cccc2ccccc12 [Compound 55],15
14,Cc1ccc(Cn2ccc(C)c(NC(=O)[C@H](Cc3ccc(CC(=O)O)cc3)NC(=O)Cc3cccc4ccccc34)c2=O)cc1 [Compound 56],7.1
15,COc1ccc(Cn2ccc(C)c(NC(=O)[C@H](Cc3ccc(CC(=O)O)cc3)NC(=O)OCc3ccccc3)c2=O)cc1 [Compound 57],15
16,COc1ccc(Cn2ccc(C)c(NC(=O)[C@H](Cc3ccc(CC(=O)O)cc3)NC(=O)Cc3ccccc3)c2=O)cc1 [Compound 58],5.6
17,"COc1ccc(Cn2ccc(C)c(NC(=O)[C@H](Cc3ccc(CC(=O)O)cc3)NC(=O)Cc3ccc4ccccc4c3)c2=O)cc1 [Compound 59, 3-[2'-(S)-(2'""-Naphthylacetyl)amino-3'-(4""-carboxymethyl)benzene]propanoylamino-1-(4-methoxybenzyl)-4-methyl-2-pyridone]",1.5
18,COc1ccc(Cn2ccc(C)c(NC(=O)[C@H](Cc3ccc(CC(=O)O)cc3)NC(=O)Cc3cc4ccccc4cc3C)c2=O)cc1 [Compound 60],1.9
19,COc1ccc(Cn2ccc(C)c(NC(=O)[C@H](Cc3ccc(CC(=O)O)cc3)NC(=O)Cc3cccc(Oc4ccccc4)c3)c2=O)cc1 [Compound 61],3.3
20,COc1ccc(Cn2ccc(C)c(NC(=O)[C@H](Cc3ccc(CC(=O)O)cc3)NC(=O)[C@@H](C)c3ccc4cc(OC)ccc4c3)c2=O)cc1 [Compound 62],8.8
21,COc1ccc(Cn2ccc(C)c(NC(=O)[C@H](Cc3ccc(CC(=O)O)cc3)NC(=O)C(C)(C)C)c2=O)cc1 [Compound 63],12
22,COc1ccc(Cn2ccc(C)c(NC(=O)[C@H](Cc3ccc(CC(=O)O)cc3)NC(=O)Cc3cc(=O)oc4cc(N(C)C)ccc34)c2=O)cc1 [Compound 64],17
23,COc1ccc(Cn2ccc(C)c(NC(=O)[C@H](Cc3ccc(C(F)(F)P(=O)(O)O)cc3)NC(C)=O)c2=O)cc1 [Compound 65],1.3
24,COc1ccc(Cn2ccc(C)c(NC(=O)[C@H](Cc3ccc(C(F)(F)P(=O)(O)O)cc3)NC(=O)Cc3cccc4ccccc34)c2=O)cc1 [Compound 66],0.43
25,Cc1ccn(CC2CCCCC2)c(=O)c1NC(=O)[C@H](Cc1ccc(CC(=O)O)cc1)NC(=O)C(C)(C)C [Compound 67],64

row,SMILES,Kd [µM]
1,Cc1ccn(CC2CCCCC2)c(=O)c1NC(=O)[C@H](Cc1ccc(CC(=O)O)cc1)NC(=O)Cc1cccc2ccccc12 [Compound 68],12
2,CCCCCn1ccc(C)c(NC(=O)[C@H](Cc2ccc(CC(=O)O)cc2)NC(=O)C(C)(C)C)c1=O [Compound 69],89
3,CCCCCn1ccc(C)c(NC(=O)[C@H](Cc2ccc(CC(=O)O)cc2)NC(=O)Cc2cccc3ccccc23)c1=O [Compound 70],24
4,COc1ccc(Cn2ccc(C)c(NC(=O)[C@H](Cc3ccc(CC(=O)O)cc3)NC(=O)Cc3ccc(Oc4ccccc4)cc3)c2=O)cc1 [Compound 71],14
5,COc1ccc(Cn2ccc(C)c(NC(=O)[C@H](Cc3ccc(CC(=O)O)cc3)NC(=O)COc3cccc4ccccc34)c2=O)cc1 [Compound 72],2.5
6,COc1ccc(Cn2ccc(C)c(NC(=O)[C@H](Cc3ccc(CC(=O)O)cc3)NC(=O)Cc3ccccc3Oc3ccccc3)c2=O)cc1 [Compound 73],> 250
7,CCC(=O)N[C@@H](Cc1ccc(CC(=O)O)cc1)C(=O)Nc1c(C)ccn(Cc2ccc(OC)cc2)c1=O [Compound 74],14
8,COc1ccc(Cn2ccc(C)c(NC(=O)[C@H](Cc3ccc(CC(=O)O)cc3)NC(=O)C(C)C)c2=O)cc1 [Compound 75],6.7
9,COc1ccc(Cn2ccc(C)c(NC(=O)[C@H](Cc3ccc(CC(=O)O)cc3)NC(=O)C(C)(C)c3ccccc3)c2=O)cc1 [Compound 76],8.6
10,COc1ccc(Cn2ccc(C)c(NC(=O)[C@H](Cc3ccc(CC(=O)O)cc3)NC(=O)C3(c4ccccc4)CC3)c2=O)cc1 [Compound 77],20
11,COc1ccc(Cn2ccc(C)c(NC(=O)[C@H](Cc3ccc(CC(=O)O)cc3)NC(=O)C3(c4ccccc4)CCCC3)c2=O)cc1 [Compound 78],13
12,COc1ccc(Cn2ccc(C)c(NC(=O)[C@H](Cc3ccc(CC(=O)O)cc3)NC(=O)C3(c4ccccc4)CCCCC3)c2=O)cc1 [Compound 79],11
13,COc1ccc(Cn2ccc(C)c(NC(=O)[C@H](Cc3ccc(CC(=O)O)cc3)NC(=O)C3(c4ccccc4)CCOCC3)c2=O)cc1 [Compound 80],20
14,COc1ccc(C(C)n2ccc(C)c(NC(=O)[C@H](Cc3ccc(CC(=O)O)cc3)NC(C)=O)c2=O)cc1 (stereo partly shown) [Compound 81],23
15,COc1ccc(C(C)n2ccc(C)c(NC(=O)[C@H](Cc3ccc(CC(=O)O)cc3)NC(=O)C(C)(C)C)c2=O)cc1 (stereo partly shown) [Compound 82],32
16,COc1ccc(C(C)n2ccc(C)c(NC(=O)[C@H](Cc3ccc(CC(=O)O)cc3)NC(=O)Cc3cccc4ccccc34)c2=O)cc1 (stereo partly shown) [Compound 83],2.1
17,COc1ccc(Cn2ccc(C)c(NC(=O)[C@H](Cc3ccc(CC(=O)O)cc3)NC(=O)COc3cccc4cnccc34)c2=O)cc1 [Compound 84],400
18,COc1ccc(Cn2ccc(C)c(NC(=O)[C@H](Cc3ccc(CC(=O)O)cc3)NC(=O)COc3nccc4ccccc34)c2=O)cc1 [Compound 85],2.6
19,COc1ccc(Cn2ccc(C)c(NC(=O)[C@H](Cc3ccc(CC(=O)O)cc3)NC(=O)COc3cc4ccccc4cn3)c2=O)cc1 [Compound 86],3.3
20,COc1ccc(Cn2ccc(C)c(NC(=O)[C@H](Cc3ccc(CC(=O)O)cc3)NC(=O)C(F)(F)F)c2=O)cc1 [Compound 87],18
21,COc1ccc(Cn2ccc(C)c(NC(=O)[C@H](Cc3ccc(CC(=O)O)cc3)NC(=O)Cc3cccc4ccccc34)c2=O)cc1 [Compound 88],4.4
22,COc1ccc(Cn2ccc(C)c(NC(=O)[C@H](Cc3ccc(CC(=O)O)cc3)NC(C)=O)c2=O)cc1 [Compound 89],19
23,COc1ccc(Cn2cccc(NC(=O)[C@H](Cc3ccc(CC(=O)O)cc3)NC(=O)Cc3cccc4ccccc34)c2=O)cc1 [Compound 90],> 250
24,COc1ccc(Cn2c(C)cc(C)c(NC(=O)[C@H](Cc3ccc(CC(=O)O)cc3)NC(=O)Cc3cccc4ccccc34)c2=O)cc1 [Compound 91],4.8
